Test results reported in ChEMBL document CHEMBL4507297, “Data for DCP probe PF-04457845” (2021).

Experiments:
[1] = tested on: Tyrosine-protein kinase ABL1 (Homo sapiens), P00519 [H396P]; settings: Compound concentration 1000.0 nM
[2] = biological target: Serine/threonine-protein kinase B-raf (Homo sapiens) (UniProt P15056); settings: Compound concentration 1000.0 nM
[3] = biological target: Cyclin-dependent kinase 13 (Homo sapiens) (UniProt Q14004); settings: Compound concentration 1000.0 nM
[4] = tested on: Tyrosine-protein kinase ABL1 (Homo sapiens), P00519 [M351T]; settings: Compound concentration 1000.0 nM
[5] = biological target: Serine/threonine-protein kinase 25 (Homo sapiens) (UniProt O00506); settings: Compound concentration 1000.0 nM
Serine/threonine-protein kinase 25 (Homo sapiens), sequence (O00506 whole entry, looked up): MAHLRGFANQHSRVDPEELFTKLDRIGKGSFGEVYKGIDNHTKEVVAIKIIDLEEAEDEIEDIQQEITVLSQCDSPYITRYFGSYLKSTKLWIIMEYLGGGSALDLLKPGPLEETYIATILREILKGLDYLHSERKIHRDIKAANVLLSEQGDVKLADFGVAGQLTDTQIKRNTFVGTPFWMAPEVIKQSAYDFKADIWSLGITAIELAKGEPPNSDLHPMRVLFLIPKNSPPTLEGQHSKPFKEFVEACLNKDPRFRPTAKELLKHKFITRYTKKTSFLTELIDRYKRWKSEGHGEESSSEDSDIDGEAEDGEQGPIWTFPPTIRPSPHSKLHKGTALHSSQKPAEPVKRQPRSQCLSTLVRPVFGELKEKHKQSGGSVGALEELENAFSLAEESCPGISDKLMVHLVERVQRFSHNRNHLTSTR

[6] = biological target: Atypical kinase COQ8B, mitochondrial (Homo sapiens) (UniProt Q96D53); settings: Compound concentration 1000.0 nM
[7] = biological target: D(4) dopamine receptor (Homo sapiens) (UniProt P21917); settings: Compound concentration 10.0 uM
[8] = biological target: Ribosomal protein S6 kinase alpha-6 (Homo sapiens) (UniProt Q9UK32); settings: Compound concentration 1000.0 nM
[9] = biological target: Histamine H2 receptor (Homo sapiens) (UniProt P25021); settings: Compound concentration 10.0 uM
[10] = biological target: Casein kinase I isoform epsilon (Homo sapiens) (UniProt P49674); settings: Compound concentration 1000.0 nM
[11] = biological target: Fibroblast growth factor receptor 1 (Homo sapiens) (UniProt P11362); settings: Compound concentration 1000.0 nM
[12] = biological target: Serine/threonine-protein kinase SIK3 (Homo sapiens) (UniProt Q9Y2K2); settings: Compound concentration 1000.0 nM
[13] = biological target: Ribosomal protein S6 kinase alpha-4 (Homo sapiens) (UniProt O75676); settings: Compound concentration 1000.0 nM
[14] = biological target: Ribosomal protein S6 kinase alpha-5 (Homo sapiens) (UniProt O75582); settings: Compound concentration 1000.0 nM
[15] = biological target: Serine/threonine-protein kinase 16 (Homo sapiens) (UniProt O75716); settings: Compound concentration 1000.0 nM
[16] = tested on: Hepatocyte growth factor receptor (Homo sapiens), P08581 [M1250T]; settings: Compound concentration 1000.0 nM
[17] = biological target: Dual specificity tyrosine-phosphorylation-regulated kinase 1A (Homo sapiens) (UniProt Q13627); settings: Compound concentration 1000.0 nM
[18] = tested on: Tyrosine-protein kinase ABL1 (Homo sapiens), P00519 [T315I]; settings: Compound concentration 1000.0 nM
[19] = biological target: Cyclin-dependent kinase 19 (Homo sapiens) (UniProt Q9BWU1); settings: Compound concentration 1000.0 nM
Cyclin-dependent kinase 19 (Homo sapiens), sequence (Q9BWU1 whole entry): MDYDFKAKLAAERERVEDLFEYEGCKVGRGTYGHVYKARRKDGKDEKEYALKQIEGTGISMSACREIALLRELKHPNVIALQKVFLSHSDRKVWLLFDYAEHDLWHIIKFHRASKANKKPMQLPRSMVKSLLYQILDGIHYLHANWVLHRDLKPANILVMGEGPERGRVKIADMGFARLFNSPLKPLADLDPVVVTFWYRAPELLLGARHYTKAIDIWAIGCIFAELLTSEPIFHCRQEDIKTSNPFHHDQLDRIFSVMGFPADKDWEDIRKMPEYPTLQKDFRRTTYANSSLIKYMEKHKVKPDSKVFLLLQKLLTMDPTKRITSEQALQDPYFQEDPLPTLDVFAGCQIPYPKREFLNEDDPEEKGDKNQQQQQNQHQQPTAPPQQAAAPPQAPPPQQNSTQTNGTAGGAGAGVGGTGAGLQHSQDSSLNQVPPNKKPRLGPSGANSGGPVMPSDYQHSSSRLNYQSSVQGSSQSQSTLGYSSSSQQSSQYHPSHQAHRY

[20] = biological target: Tyrosine-protein kinase receptor TYRO3 (Homo sapiens) (UniProt Q06418); settings: Compound concentration 1000.0 nM
[21] = biological target: Protein kinase C theta type (Homo sapiens) (UniProt Q04759); settings: Compound concentration 1000.0 nM
Protein kinase C theta type (Homo sapiens), sequence (Q04759 whole entry, looked up): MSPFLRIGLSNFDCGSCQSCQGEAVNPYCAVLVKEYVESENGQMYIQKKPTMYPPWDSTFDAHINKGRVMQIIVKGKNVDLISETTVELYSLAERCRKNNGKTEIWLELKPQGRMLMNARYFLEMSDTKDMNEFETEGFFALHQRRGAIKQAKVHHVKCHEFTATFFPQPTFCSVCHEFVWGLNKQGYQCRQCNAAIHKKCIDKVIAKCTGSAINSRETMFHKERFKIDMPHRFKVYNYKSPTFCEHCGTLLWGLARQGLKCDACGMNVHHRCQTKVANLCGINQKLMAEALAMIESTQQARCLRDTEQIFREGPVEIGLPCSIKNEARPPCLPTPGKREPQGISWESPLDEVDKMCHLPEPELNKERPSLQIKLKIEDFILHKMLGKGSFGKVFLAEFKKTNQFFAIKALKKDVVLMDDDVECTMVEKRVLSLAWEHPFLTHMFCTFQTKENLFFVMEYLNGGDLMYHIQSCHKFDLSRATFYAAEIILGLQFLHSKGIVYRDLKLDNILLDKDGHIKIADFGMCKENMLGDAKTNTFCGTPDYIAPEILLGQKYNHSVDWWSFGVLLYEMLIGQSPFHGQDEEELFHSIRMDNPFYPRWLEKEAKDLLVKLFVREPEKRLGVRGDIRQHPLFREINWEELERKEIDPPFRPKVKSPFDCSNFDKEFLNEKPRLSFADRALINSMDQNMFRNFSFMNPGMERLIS

[22] = tested on: Mast/stem cell growth factor receptor Kit (Homo sapiens), P10721 [D816H]; settings: Compound concentration 1000.0 nM
[23] = tested on: Phosphatidylinositol 4,5-bisphosphate 3-kinase catalytic subunit alpha isoform (Homo sapiens), P42336 [E545K]; settings: Compound concentration 1000.0 nM
[24] = biological target: Fibroblast growth factor receptor 4 (Homo sapiens) (UniProt P22455); settings: Compound concentration 1000.0 nM
[25] = biological target: Serine/threonine-protein kinase 38 (Homo sapiens) (UniProt Q15208); settings: Compound concentration 1000.0 nM
[26] = biological target: MAP kinase-activated protein kinase 2 (Homo sapiens) (UniProt P49137); settings: Compound concentration 1000.0 nM
[27] = biological target: Death-associated protein kinase 3 (Homo sapiens) (UniProt O43293); settings: Compound concentration 1000.0 nM
[28] = biological target: BMP-2-inducible protein kinase (Homo sapiens) (UniProt Q9NSY1); settings: Compound concentration 1000.0 nM
[29] = tested on: Serine/threonine-protein kinase B-raf (Homo sapiens), P15056 [V600E]; settings: Compound concentration 1000.0 nM
Serine/threonine-protein kinase B-raf (Homo sapiens), P15056 [V600E], sequence (P15056 whole entry V600E): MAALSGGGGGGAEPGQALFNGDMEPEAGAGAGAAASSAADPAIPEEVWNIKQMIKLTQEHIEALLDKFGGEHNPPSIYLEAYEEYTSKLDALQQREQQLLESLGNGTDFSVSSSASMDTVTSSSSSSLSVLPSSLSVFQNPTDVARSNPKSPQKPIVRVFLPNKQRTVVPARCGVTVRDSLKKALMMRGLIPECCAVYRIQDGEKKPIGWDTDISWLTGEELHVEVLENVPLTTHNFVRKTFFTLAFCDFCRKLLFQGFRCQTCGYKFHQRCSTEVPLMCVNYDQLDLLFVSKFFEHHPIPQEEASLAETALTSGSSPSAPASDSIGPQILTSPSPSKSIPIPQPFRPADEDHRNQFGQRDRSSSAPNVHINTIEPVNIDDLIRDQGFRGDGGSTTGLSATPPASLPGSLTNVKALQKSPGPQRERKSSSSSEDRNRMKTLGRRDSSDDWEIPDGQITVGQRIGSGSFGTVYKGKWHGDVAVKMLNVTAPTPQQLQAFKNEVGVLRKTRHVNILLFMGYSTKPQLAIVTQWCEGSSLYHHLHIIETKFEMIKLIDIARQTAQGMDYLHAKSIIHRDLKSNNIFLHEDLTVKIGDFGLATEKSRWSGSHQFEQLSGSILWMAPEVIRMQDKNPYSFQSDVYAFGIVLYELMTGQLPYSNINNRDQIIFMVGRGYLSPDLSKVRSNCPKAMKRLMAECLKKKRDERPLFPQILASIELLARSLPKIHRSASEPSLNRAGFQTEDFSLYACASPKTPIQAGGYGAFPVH

[30] = biological target: Ephrin type-A receptor 4 (Homo sapiens) (UniProt P54764); settings: Compound concentration 1000.0 nM
[31] = biological target: Casein kinase I isoform gamma-3 (Homo sapiens) (UniProt Q9Y6M4); settings: Compound concentration 1000.0 nM
[32] = biological target: Serine/threonine-protein kinase TAO2 (Homo sapiens) (UniProt Q9UL54); settings: Compound concentration 1000.0 nM
[33] = biological target: Eukaryotic translation initiation factor 2-alpha kinase 1 (Homo sapiens) (UniProt Q9BQI3); settings: Compound concentration 1000.0 nM
Eukaryotic translation initiation factor 2-alpha kinase 1 (Homo sapiens), sequence (Q9BQI3 whole entry): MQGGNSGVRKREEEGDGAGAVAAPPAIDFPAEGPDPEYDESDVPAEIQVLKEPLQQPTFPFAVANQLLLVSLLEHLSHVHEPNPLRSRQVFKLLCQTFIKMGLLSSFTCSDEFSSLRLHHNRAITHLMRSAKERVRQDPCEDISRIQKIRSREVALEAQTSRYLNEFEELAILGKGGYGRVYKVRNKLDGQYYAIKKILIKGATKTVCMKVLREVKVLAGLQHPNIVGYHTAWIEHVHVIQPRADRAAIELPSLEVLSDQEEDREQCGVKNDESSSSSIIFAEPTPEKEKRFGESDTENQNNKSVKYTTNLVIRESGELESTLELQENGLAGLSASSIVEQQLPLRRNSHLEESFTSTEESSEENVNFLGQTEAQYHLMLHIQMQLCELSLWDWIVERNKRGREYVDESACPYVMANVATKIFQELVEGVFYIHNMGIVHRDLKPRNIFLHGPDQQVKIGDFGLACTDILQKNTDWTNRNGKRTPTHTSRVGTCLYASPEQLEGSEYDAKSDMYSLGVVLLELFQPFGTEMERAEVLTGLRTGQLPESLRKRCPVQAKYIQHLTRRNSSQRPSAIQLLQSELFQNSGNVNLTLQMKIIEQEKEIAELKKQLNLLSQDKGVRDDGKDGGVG

[34] = biological target: Serine/threonine-protein kinase TAO1 (Homo sapiens) (UniProt Q7L7X3); settings: Compound concentration 1000.0 nM
[35] = biological target: Serine/threonine-protein kinase 10 (Homo sapiens) (UniProt O94804); settings: Compound concentration 1000.0 nM
[36] = tested on: Epidermal growth factor receptor (Homo sapiens), P00533 [UNDEFINED MUTATION]; settings: Compound concentration 1000.0 nM
[37] = biological target: Tyrosine-protein kinase HCK (Homo sapiens) (UniProt P08631); settings: Compound concentration 1000.0 nM
Tyrosine-protein kinase HCK (Homo sapiens), sequence (P08631 2-526 limits assumed): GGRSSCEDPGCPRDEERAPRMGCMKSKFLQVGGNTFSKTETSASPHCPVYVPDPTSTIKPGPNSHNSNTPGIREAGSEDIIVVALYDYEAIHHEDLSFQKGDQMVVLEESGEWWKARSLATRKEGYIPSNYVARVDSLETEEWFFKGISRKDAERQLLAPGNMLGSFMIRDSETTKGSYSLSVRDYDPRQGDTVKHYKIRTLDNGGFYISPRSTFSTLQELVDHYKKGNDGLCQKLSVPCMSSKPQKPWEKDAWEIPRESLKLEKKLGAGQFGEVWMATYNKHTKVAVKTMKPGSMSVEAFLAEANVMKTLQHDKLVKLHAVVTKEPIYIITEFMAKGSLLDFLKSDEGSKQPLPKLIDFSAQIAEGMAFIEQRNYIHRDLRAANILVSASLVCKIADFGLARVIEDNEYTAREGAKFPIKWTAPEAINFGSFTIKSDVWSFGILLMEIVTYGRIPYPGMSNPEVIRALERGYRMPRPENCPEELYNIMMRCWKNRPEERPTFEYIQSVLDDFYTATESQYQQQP

[38] = biological target: Dual specificity mitogen-activated protein kinase kinase 7 (Homo sapiens) (UniProt O14733); settings: Compound concentration 1000.0 nM
[39] = biological target: Peripheral plasma membrane protein CASK (Homo sapiens) (UniProt O14936); settings: Compound concentration 1000.0 nM
[40] = biological target: Protein kinase C eta type (Homo sapiens) (UniProt P24723); settings: Compound concentration 1000.0 nM
Protein kinase C eta type (Homo sapiens), sequence (P24723 whole entry): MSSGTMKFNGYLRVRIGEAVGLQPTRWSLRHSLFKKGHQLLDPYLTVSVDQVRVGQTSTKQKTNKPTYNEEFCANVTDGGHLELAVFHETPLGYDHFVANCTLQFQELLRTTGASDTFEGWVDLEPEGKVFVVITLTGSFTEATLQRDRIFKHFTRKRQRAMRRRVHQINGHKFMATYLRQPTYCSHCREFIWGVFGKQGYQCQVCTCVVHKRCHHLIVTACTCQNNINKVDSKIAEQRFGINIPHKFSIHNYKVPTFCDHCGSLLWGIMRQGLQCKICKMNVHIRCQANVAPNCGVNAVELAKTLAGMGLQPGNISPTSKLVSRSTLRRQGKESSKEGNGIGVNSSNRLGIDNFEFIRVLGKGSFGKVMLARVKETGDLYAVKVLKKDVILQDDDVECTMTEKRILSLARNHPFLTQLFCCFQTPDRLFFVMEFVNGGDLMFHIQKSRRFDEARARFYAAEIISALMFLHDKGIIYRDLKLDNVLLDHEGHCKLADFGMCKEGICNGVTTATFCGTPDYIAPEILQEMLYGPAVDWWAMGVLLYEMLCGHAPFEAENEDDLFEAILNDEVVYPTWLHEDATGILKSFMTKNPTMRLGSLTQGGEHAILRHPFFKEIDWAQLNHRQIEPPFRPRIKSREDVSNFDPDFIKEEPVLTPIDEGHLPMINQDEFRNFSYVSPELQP

[41] = biological target: 5-hydroxytryptamine receptor 5A (Homo sapiens) (UniProt P47898); settings: Compound concentration 10.0 uM
[42] = biological target: Mitogen-activated protein kinase kinase kinase kinase 3 (Homo sapiens) (UniProt Q8IVH8); settings: Compound concentration 1000.0 nM
[43] = biological target: Mitogen-activated protein kinase 14 (Homo sapiens) (UniProt Q16539); settings: Compound concentration 1000.0 nM
[44] = biological target: G protein-coupled receptor kinase 4 (Homo sapiens) (UniProt P32298); settings: Compound concentration 1000.0 nM
G protein-coupled receptor kinase 4 (Homo sapiens), sequence (P32298 whole entry, looked up): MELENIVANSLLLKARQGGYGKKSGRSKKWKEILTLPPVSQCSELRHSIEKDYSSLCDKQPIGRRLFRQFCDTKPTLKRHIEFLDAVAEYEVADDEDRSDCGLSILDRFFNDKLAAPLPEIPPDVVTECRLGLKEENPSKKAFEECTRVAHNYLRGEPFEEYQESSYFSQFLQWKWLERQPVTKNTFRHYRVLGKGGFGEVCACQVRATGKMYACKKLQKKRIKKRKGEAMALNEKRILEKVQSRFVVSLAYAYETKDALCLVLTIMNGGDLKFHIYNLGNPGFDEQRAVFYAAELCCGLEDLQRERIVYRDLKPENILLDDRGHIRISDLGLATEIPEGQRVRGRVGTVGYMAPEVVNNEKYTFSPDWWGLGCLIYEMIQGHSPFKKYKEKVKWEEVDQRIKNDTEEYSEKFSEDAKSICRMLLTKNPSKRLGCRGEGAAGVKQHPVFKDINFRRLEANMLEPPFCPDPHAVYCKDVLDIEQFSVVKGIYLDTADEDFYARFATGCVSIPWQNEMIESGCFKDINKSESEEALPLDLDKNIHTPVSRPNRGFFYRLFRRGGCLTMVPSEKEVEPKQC

[45] = biological target: Calcium/calmodulin-dependent protein kinase type 1D (Homo sapiens) (UniProt Q8IU85); settings: Compound concentration 1000.0 nM

Serine/threonine-protein kinase B-raf (Homo sapiens), sequence (P15056 whole entry): as the sequence (P15056 whole entry V600E) above, with E600V counted along it

O=C(Nc1cccnn1)N1CC(C/C=C/c2cncc(Oc3ccc(C(F)(F)F)cn3)n2)C1
inactive: residual activity [1] 76% | residual activity [2] 100% | residual activity [3] 98% | residual activity [4] 67% | residual activity [5] 91% | residual activity [6] 94% | inhibition [7] 12.3% | residual activity [8] 80% | inhibition [9] -3.96% | residual activity [10] 100% | residual activity [11] 100% | residual activity [12] 74% | residual activity [13] 100% | residual activity [14] 100% | residual activity [15] 98% | residual activity [16] 100% | residual activity [17] 75% | residual activity [18] 60% | residual activity [19] 84% | residual activity [20] 100% | residual activity [21] 100% | residual activity [22] 74% | residual activity [23] 81% | residual activity [24] 100% | residual activity [25] 99% | residual activity [26] 100% | residual activity [27] 100% | residual activity [28] 100% | residual activity [29] 85% | residual activity [30] 100% | residual activity [31] 100% | residual activity [32] 66% | residual activity [33] 100% | residual activity [34] 91% | residual activity [35] 94% | residual activity [36] 100% | residual activity [37] 100% | residual activity [38] 91% | residual activity [39] 64% | residual activity [40] 100% | inhibition [41] 7.85% | residual activity [42] 100% | residual activity [43] 100% | residual activity [44] 100% | residual activity [45] 100%

O=C(Nc1cccnn1)N1CCC(=Cc2cccc(Oc3ccc(C(F)(F)F)cn3)c2)CC1
inactive: residual activity [1] 100% | residual activity [2] 93% | residual activity [3] 100% | residual activity [4] 99% | residual activity [5] 100% | residual activity [6] 81% | inhibition [7] -6.93% | residual activity [8] 100% | inhibition [9] 17.3% | residual activity [10] 100% | residual activity [11] 100% | residual activity [12] 83% | residual activity [13] 98% | residual activity [14] 71% | residual activity [15] 90% | residual activity [16] 100% | residual activity [17] 100% | residual activity [18] 100% | residual activity [19] 100% | residual activity [20] 100% | residual activity [21] 67% | residual activity [22] 100% | residual activity [23] 100% | residual activity [24] 100% | residual activity [25] 100% | residual activity [26] 87% | residual activity [27] 79% | residual activity [28] 100% | residual activity [29] 100% | residual activity [30] 100% | residual activity [31] 100% | residual activity [32] 100% | residual activity [33] 100% | residual activity [34] 100% | residual activity [35] 74% | residual activity [36] 68% | residual activity [37] 98% | residual activity [38] 100% | residual activity [39] 92% | residual activity [40] 77% | inhibition [41] 28.4% | residual activity [42] 100% | residual activity [43] 100% | residual activity [44] 97% | residual activity [45] 97%
